From PMC4832243, “Discovery of Potent VEGFR-2 Inhibitors based on Furopyrimidine and Thienopyrimidne Scaffolds as Cancer Targeting Agents” (Scientific Reports, 2016)

Key:
CCRF-CEM = experiment: NCI 60 cell line panel (SRB), CCRF-CEM; assay type: cell-based; conditions: Homo sapiens, Leukemia, single dose of 10 μM, read-out: Cell Growth Percent
K-562 = experiment: NCI 60 cell line panel (SRB), K-562; assay type: cell-based; conditions: Homo sapiens, K562; K-562, Leukemia; single dose of 10 μM; read-out: Cell Growth Percent
A549/ATCC = experiment: NCI 60 cell line panel (SRB), A549/ATCC; assay type: cell-based; conditions: Homo sapiens, Non-Small Cell Lung Cancer, single dose of 10 μM, read-out: Cell Growth Percent
HOP-92 = experiment: NCI 60 cell line panel (SRB), HOP-92; assay type: cell-based; conditions: Homo sapiens; HOP-92, Non-Small Cell Lung Cancer; single dose of 10 μM; read-out: Cell Growth Percent
NCI-H23 = experiment: NCI 60 cell line panel (SRB), NCI-H23; assay type: cell-based; conditions: Homo sapiens; NCI-H23, Non-Small Cell Lung Cancer; single dose of 10 μM; read-out: Cell Growth Percent
KM12 = experiment: NCI 60 cell line panel (SRB), KM12; assay type: cell-based; conditions: Homo sapiens; KM12, Colon Cancer; single dose of 10 μM; read-out: Cell Growth Percent
SW-620 = experiment: NCI 60 cell line panel (SRB), SW-620; assay type: cell-based; conditions: Homo sapiens; SW-620, Colon Cancer; single dose of 10 μM; read-out: Cell Growth Percent
SF-268 = experiment: NCI 60 cell line panel (SRB), SF-268; assay type: cell-based; conditions: Homo sapiens; SF-268, CNS Cancer; single dose of 10 μM; read-out: Cell Growth Percent
LOX IMVI = experiment: NCI 60 cell line panel (SRB), LOX IMVI; assay type: cell-based; conditions: Homo sapiens, Melanoma, single dose of 10 μM, read-out: Cell Growth Percent
UACC-257 = experiment: NCI 60 cell line panel (SRB), UACC-257; assay type: cell-based; conditions: Homo sapiens; UACC-257, Melanoma; single dose of 10 μM; read-out: Cell Growth Percent
UACC-62 = experiment: NCI 60 cell line panel (SRB), UACC-62; assay type: cell-based; conditions: Homo sapiens; UACC-62, Melanoma; single dose of 10 μM; read-out: Cell Growth Percent
IGROV1 = experiment: NCI 60 cell line panel (SRB), IGROV1; assay type: cell-based; conditions: Homo sapiens, IGROV-1; IGROV1, Ovarian Cancer; single dose of 10 μM; read-out: Cell Growth Percent
OVCAR-4 = experiment: NCI 60 cell line panel (SRB), OVCAR-4; assay type: cell-based; conditions: Homo sapiens; OVCAR-4, Ovarian Cancer; single dose of 10 μM; read-out: Cell Growth Percent
OVCAR-8 = experiment: NCI 60 cell line panel (SRB), OVCAR-8; assay type: cell-based; conditions: Homo sapiens; OVCAR-8, Ovarian Cancer; single dose of 10 μM; read-out: Cell Growth Percent
ACHN = experiment: NCI 60 cell line panel (SRB), ACHN; assay type: cell-based; conditions: Homo sapiens, Renal Cancer, single dose of 10 μM, read-out: Cell Growth Percent
RXF 393 = experiment: NCI 60 cell line panel (SRB), RXF 393; assay type: cell-based; conditions: Homo sapiens; RXF 393, Renal Cancer; single dose of 10 μM; read-out: Cell Growth Percent
SN12C = experiment: NCI 60 cell line panel (SRB), SN12C; assay type: cell-based; conditions: Homo sapiens, Renal Cancer, single dose of 10 μM, read-out: Cell Growth Percent
TK-10 = experiment: NCI 60 cell line panel (SRB), TK-10; assay type: cell-based; conditions: Homo sapiens; TK-10, Renal Cancer; single dose of 10 μM; read-out: Cell Growth Percent
UO-31 = experiment: NCI 60 cell line panel (SRB), UO-31; assay type: cell-based; conditions: Homo sapiens; UO-31, Renal Cancer; single dose of 10 μM; read-out: Cell Growth Percent
PC-3 = experiment: NCI 60 cell line panel (SRB), PC-3; assay type: cell-based; conditions: Homo sapiens; PC-3, Prostate Cancer; single dose of 10 μM; read-out: Cell Growth Percent
DU-145 = experiment: NCI 60 cell line panel (SRB), DU-145; assay type: cell-based; conditions: Homo sapiens; DU-145, Prostate Cancer; single dose of 10 μM; read-out: Cell Growth Percent
BT-549 = experiment: NCI 60 cell line panel (SRB), BT-549; assay type: cell-based; conditions: Homo sapiens; BT-549, Breast Cancer; single dose of 10 μM; read-out: Cell Growth Percent
T-47D = experiment: NCI 60 cell line panel (SRB), T-47D; assay type: cell-based; conditions: Homo sapiens, T47D, Breast Cancer, single dose of 10 μM, read-out: Cell Growth Percent
MDA-MB-468 = experiment: NCI 60 cell line panel (SRB), MDA-MB-468; assay type: cell-based; conditions: Homo sapiens; MDA-MB-468, Breast Cancer; single dose of 10 μM; read-out: Cell Growth Percent

Compound	activity at 10 µM (CCRF-CEM)	activity at 10 µM (K-562)	activity at 10 µM (A549/ATCC)	activity at 10 µM (HOP-92)	activity at 10 µM (NCI-H23)	activity at 10 µM (KM12)	activity at 10 µM (SW-620)	activity at 10 µM (SF-268)	activity at 10 µM (LOX IMVI)	activity at 10 µM (UACC-257)	activity at 10 µM (UACC-62)	activity at 10 µM (IGROV1)	activity at 10 µM (OVCAR-4)	activity at 10 µM (OVCAR-8)	activity at 10 µM (ACHN)	activity at 10 µM (RXF 393)	activity at 10 µM (SN12C)	activity at 10 µM (TK-10)	activity at 10 µM (UO-31)	activity at 10 µM (PC-3)	further results
CCOC(=O)c1c(C)oc2ncnc(Nc3ccc(C(=O)Nc4cccc(Cl)c4)cc3)c12 [Compound 14a]	93.8%	87%	95.3%	92%	100%	93.8%	106%	103%	93.1%	117%	67.6%	105%	98%	103%	114%	76.8%	94.1%	102%	89.5%	78.3%	activity at 10 µM (DU-145): 75.9%; activity at 10 µM (BT-549): 87.6%; activity at 10 µM (T-47D): 98.2%; activity at 10 µM (MDA-MB-468): 90.9%; melting point: 226 to 230 °C
O=C(Nc1ccccc1)Nc1ccc(Nc2ncnc3sc4c(c23)CCCC4)cc1 [Compound 20a]	92.3%	99.7%	73.8%	100%	100%	102%	106%	100%	99.4%	93.5%	97.8%	107%	107%	107%	101%	102%	99.2%	124%	71.5%	89.8%	activity at 10 µM (DU-145): 109%; activity at 10 µM (BT-549): 109%; activity at 10 µM (T-47D): 100%; activity at 10 µM (MDA-MB-468): 96.8%
COc1cccc(NC(=O)Nc2ccc(Nc3ncnc4sc5c(c34)CCCC5)cc2)c1 [Compound 20c]	94.6%	97.2%	78.3%	118%	104%	89.6%	112%	99.5%	94.4%	94.9%	106%	106%	88.8%	113%	92%	116%	91%	129%	61%	89.6%	activity at 10 µM (DU-145): 105%; activity at 10 µM (BT-549): 85.8%; activity at 10 µM (T-47D): 66.4%; activity at 10 µM (MDA-MB-468): 114%; melting point: 206 to 210 °C
O=C(Nc1ccc(Nc2ncnc3sc4c(c23)CCCC4)cc1)Nc1cccc(Cl)c1 [Compound 20d]	97.7%	110%	74.2%	102%	103%	105%	108%	106%	103%	93.8%	106%	113%	101%	112%	99.7%	115%	102%	108%	90.9%	96%	activity at 10 µM (DU-145): 110%; activity at 10 µM (BT-549): 100%; activity at 10 µM (T-47D): 100%; activity at 10 µM (MDA-MB-468): 110%
CCOC(=O)c1c(C)oc2ncnc(Nc3ccc(C(=O)Nc4ccc(OC)cc4)cc3)c12 [Compound 14b]	89.1%	107%	93.3%	78.8%	95.6%	96.1%	112%	101%	93.2%	94.7%	93.4%	108%	95.6%	98.9%	95.2%	92%	103%	102%	94.3%	83.6%	activity at 10 µM (DU-145): 97.1%; activity at 10 µM (BT-549): 61.9%; activity at 10 µM (T-47D): 91%; activity at 10 µM (MDA-MB-468): 102%; melting point: 218 to 222 °C
CCOC(=O)c1c(C)oc2ncnc(Nc3ccc(NC(=O)Nc4cccc(Cl)c4)cc3)c12 [Compound 15d]	31.5%	67.7%	32.3%	50.6%	64%	61%	88.6%	86.4%	64.1%	83.9%	69.1%	78.4%	73.7%	50.2%	57.4%	63.6%	73.9%	79.1%	50.3%	41.2%	activity at 10 µM (DU-145): 70.8%; activity at 10 µM (BT-549): 61.5%; activity at 10 µM (T-47D): 1.9%; activity at 10 µM (MDA-MB-468): 49.7%
